From paper doi:10.1101/2025.04.19.649632v1 (biorxiv, 2025)
Where two headings read alike, the source gives them in different places.

How the values were obtained:
[1] = target: T1, USP32 FL (USP32FL, USP32WT) (Homo sapiens, UniProt Q8NFA0); type: biochemical; settings: 500 nM UbRhoMP, pH 7.6, 1 mM TCEP, RT; covalent
[2] = target: T1, USP32 FL (USP32FL, USP32WT); settings: read-out: Ki; covalent
[3] = target: T1, USP32 FL (USP32FL, USP32WT); assay: biochemical; settings: read-out: kinact (s^-1)
[4] = target: T1, USP32 FL (USP32FL, USP32WT); assay: UbRhoMP fluorescence intensity assay, […] min preincubation; type: biochemical

T1 sequence (Q8NFA0 whole entry): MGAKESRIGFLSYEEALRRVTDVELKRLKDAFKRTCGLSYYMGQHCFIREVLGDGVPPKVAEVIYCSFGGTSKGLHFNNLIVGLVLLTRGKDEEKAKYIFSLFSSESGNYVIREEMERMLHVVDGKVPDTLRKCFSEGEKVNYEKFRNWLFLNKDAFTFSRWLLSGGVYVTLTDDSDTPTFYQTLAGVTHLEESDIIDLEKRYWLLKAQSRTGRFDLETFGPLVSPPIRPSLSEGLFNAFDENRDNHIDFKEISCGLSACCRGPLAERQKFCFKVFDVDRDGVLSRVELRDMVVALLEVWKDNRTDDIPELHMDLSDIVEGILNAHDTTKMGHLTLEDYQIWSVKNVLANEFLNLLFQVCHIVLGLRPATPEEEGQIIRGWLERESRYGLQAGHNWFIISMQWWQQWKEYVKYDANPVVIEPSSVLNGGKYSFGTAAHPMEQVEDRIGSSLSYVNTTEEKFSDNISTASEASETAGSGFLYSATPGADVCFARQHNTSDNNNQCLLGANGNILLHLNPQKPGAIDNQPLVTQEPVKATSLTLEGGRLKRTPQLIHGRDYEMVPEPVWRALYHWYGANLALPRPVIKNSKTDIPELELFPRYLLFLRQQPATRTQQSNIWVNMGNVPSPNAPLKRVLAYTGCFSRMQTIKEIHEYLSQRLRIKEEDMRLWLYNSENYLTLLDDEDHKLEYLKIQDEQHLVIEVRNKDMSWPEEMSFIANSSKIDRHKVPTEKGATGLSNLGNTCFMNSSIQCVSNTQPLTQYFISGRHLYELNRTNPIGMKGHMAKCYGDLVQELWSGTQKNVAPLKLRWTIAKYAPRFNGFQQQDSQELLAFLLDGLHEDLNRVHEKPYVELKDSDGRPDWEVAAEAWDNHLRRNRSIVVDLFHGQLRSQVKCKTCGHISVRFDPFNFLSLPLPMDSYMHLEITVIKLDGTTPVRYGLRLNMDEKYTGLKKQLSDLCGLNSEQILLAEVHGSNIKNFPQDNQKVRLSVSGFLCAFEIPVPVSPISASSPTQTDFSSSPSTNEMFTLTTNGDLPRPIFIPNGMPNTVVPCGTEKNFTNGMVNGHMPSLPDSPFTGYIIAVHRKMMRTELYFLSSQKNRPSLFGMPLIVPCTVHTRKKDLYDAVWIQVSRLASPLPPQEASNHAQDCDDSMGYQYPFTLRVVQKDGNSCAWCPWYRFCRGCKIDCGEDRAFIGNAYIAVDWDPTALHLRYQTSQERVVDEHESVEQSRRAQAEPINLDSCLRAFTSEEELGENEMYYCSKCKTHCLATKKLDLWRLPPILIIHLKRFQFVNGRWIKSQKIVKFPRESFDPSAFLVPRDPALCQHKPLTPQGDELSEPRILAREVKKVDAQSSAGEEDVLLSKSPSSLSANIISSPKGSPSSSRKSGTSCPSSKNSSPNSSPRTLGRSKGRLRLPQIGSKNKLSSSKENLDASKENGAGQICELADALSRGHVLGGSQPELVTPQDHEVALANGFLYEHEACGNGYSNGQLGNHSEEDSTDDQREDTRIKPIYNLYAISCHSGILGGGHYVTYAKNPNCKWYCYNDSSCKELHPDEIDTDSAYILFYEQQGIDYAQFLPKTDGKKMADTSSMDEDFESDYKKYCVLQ

kinact/Ki [1] | KI (inactivation) [2] [nM] | kinact [3] [s⁻¹] | IC50 [4] [nM] | IC50 ([4]; 500 nM UbRhoMP, pH 7.6, 1 mM TCEP, RT, covalent) [nM] | SMILES
18,800 s^-1M^-1 | 11.8 | 0.000222 | – | – | Cc1noc(C)c1S(=O)(=O)N1CCC(C(=O)N[C@@H]2CCN(C#N)C2)CC1 [BB01CA282, Huib32]
2,130 s^-1M^-1 | 152 | 0.000324 | 94 | – | Cc1noc(C)c1S(=O)(=O)N1CCC(C(=O)N2CC3CC2CN3C#N)CC1 (centres unmarked) [BB12CA282]
219 s^-1M^-1 | 4490 | 0.000984 | 518 | – | Cc1noc(C)c1S(=O)(=O)N1CCC(C(=O)N2CCC3(CCN(C#N)C3)C2)CC1 (centres unmarked) [BB14CA282]
– | – | – | – | 412 | CCN1/C(=C/C=C/C=C/C2=[N+](CCCCCC(=O)NCCCc3cn(CCOc4ccc(S(=O)(=O)N5CCC(C(=O)N[C@@H]6CCN(C#N)C6)CC5)cc4)nn3)c3ccc(S(=O)(=O)[O-])cc3C2(C)C)C(C)(C)c2cc(S(=O)(=O)O)ccc21 [Huib32*1]
– | – | – | 266 | – | N#CN1CC[C@@H](NC(=O)C2CCN(S(=O)(=O)c3ccc(OCCn4cc(CNC(=O)CCCC[C@@H]5SC[C@@H]6NC(=O)N[C@@H]65)nn4)cc3)CC2)C1 [Huib32*2]
– | – | – | 670 | – | N#CN1CC[C@@H](NC(=O)C2CCN(S(=O)(=O)c3ccc(OCCN=[N+]=[N-])cc3)CC2)C1 [Huib32*]
